The source of these data is ChEMBL document CHEMBL1201862, “PubChem BioAssay data set” (2004).

Experiment in all cases: DTP human tumour cell line panel, 48 h
Assay [1] has as its system U-251.
Assay [2] has as its system SR.
Assay [3] relates to M14.
The test system of assay [4] is K562.
For assay [5], the system named is OVCAR-5.
Assay [6] deals with A498.
Assay [7] concerns MCF7.
Assay [8] relates to Hs-578T.
In assay [9] the test system is SW-620.
Assay [10] has as its system SN12C.
Assay [11] deals with HT-29.
Assay [12] relates to NCI-H522.
Assay [13] relates to BT-549.
The test system of assay [14] is HOP-92.
The test system of assay [15] is MDA-N.
The subject of assay [16] is A549.
The test system of assay [17] is T47D.
For assay [18], the system named is EKVX.
For assay [19], the system named is NCI-H226.
Assay [20] relates to SK-MEL-5.

One may read the GI50 as the concentration that inhibits growth by half.

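96-well plates; 48 h exposure; 5 concentrations. Endpoints by linear interpolation between flanking doses. Not reached: highest tested concentration assigned. GI50: concentration for 50% inhibition of growth.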 Active and inactive are the calls of the source. Cut-off read from the data, not from the text of the source: active = GI50 up to about 1.1 µM and inactive = higher.

`O=C(O)CSc1ccc([N+](=O)[O-])cc1[N+](=O)[O-]`: the GI50 in [1], in assay [2], in [3], in assay [4], in assay [5] and in assay [6] was > 100 µM (inactive) each time. For the same molecule, the GI50 in [7], in [8], in assay [9], in [10], in assay [11] and in assay [12] was > 100 µM (inactive) throughout. For the same molecule, the GI50 in assay [13], in assay [14], in assay [15], in [16], in [17] and in assay [18] was > 100 µM (inactive) throughout.
Turning to `CCC(=O)NC(Nc1ccc(O)cc1)(C(F)(F)F)C(F)(F)F`, the GI50 in assay [1] is 73.6 µM (inactive); in [2], 36.5 µM (inactive); in [3] it was 80.5 µM (inactive); in assay [4], 33.1 µM (inactive); in assay [5], > 100 µM (inactive); in assay [6] it was > 100 µM (inactive). The GI50 is 46.3 µM (inactive) in [7]; > 100 µM (inactive) in [8]; > 100 µM (inactive) in assay [10]; > 100 µM (inactive) in assay [11]; 27.4 µM (inactive) in assay [12]; 28.1 µM (inactive) in assay [13]. Besides, the GI50 is > 100 µM (inactive) in [19], 17.9 µM (inactive) in [15], 49.4 µM (inactive) in assay [17] and > 100 µM (inactive) in assay [18].
Take `COc1ccc(OC)c(C23CCCC(C2)N(C)CC3)c1` (stereo unspecified): the GI50 is 11.7 µM (inactive) in assay [1]; 18.4 µM (inactive) in assay [2]; 17.6 µM (inactive) in [3]; 17 µM (inactive) in [4]; 40 µM (inactive) in assay [5]; 32.3 µM (inactive) in [6]. Also, the GI50 in [7] was 16.6 µM (inactive); in [8], 38.1 µM (inactive); in assay [10], 28.2 µM (inactive); in assay [11] it was 14.9 µM (inactive); in assay [13] it was 30.8 µM (inactive); in [15], 27.4 µM (inactive). The GI50 in assay [16] was 22.3 µM (inactive); in [17] it was 33.3 µM (inactive); in assay [18], 43.6 µM (inactive).
Take `O=c1c2c3c(sc2nc2n1NC=NN2)CCCC3`: the GI50 in assay [1] was 16 µM (inactive); in assay [3] it was 25.8 µM (inactive); in [4], 2.15 µM (inactive); in [5], 18.2 µM (inactive); in assay [6] it was > 53.6 µM (inactive); in assay [7] it was 13.8 µM (inactive). Moreover, the GI50 in [8] was 21.8 µM (inactive); in assay [9] it was 17.6 µM (inactive); in assay [10] it was 17.9 µM (inactive); in assay [11], 17.5 µM (inactive); in assay [12], 16.3 µM (inactive); in assay [13], 17.5 µM (inactive). Besides, the GI50 is 17.3 µM (inactive) in assay [19]; 16.4 µM (inactive) in [20]; 18.1 µM (inactive) in [14]; 16 µM (inactive) in assay [15]; > 83.4 µM (inactive) in assay [16]; 31.8 µM (inactive) in assay [17]. For the same molecule, the GI50 in [18] was 13.3 µM (inactive).
Regarding `COC(=O)c1ccc(/C=C2\Cc3ccccc3C2=O)cc1`, the GI50 in assay [1], in [2], in assay [3], in assay [4], in assay [7] and in [8] was > 100 µM (inactive) each time. For the same molecule, the GI50 in assay [9], in assay [10], in assay [11], in assay [12], in [13] and in assay [20] was > 100 µM (inactive) throughout. Besides, the GI50 in assay [15], in assay [16], in assay [17] and in [18] was > 100 µM (inactive) throughout.
Turning to `CC1=NN=C(N)N/C1=C/C(Sc1ccc(Cl)cc1)c1cccs1` (stereo unspecified), the GI50 in assay [1] was 24.5 µM (inactive); in assay [3], 13.4 µM (inactive); in [4], 13.9 µM (inactive); in [5], 18.5 µM (inactive); in [6], 16.4 µM (inactive); in [7] it was 6.53 µM (inactive). Moreover, the GI50 is 17 µM (inactive) in assay [8]; 15.9 µM (inactive) in [9]; 26.8 µM (inactive) in assay [10]; 12.3 µM (inactive) in assay [11]; 4.65 µM (inactive) in assay [12]; 37.9 µM (inactive) in assay [13]. The GI50 in assay [19] was 17 µM (inactive); in [20], 11.5 µM (inactive); in assay [14], 28.1 µM (inactive); in assay [15], 16.1 µM (inactive); in assay [16] it was 10.3 µM (inactive); in assay [17] it was 22 µM (inactive). The GI50 in assay [18] was 14.4 µM (inactive).
For `COc1cc(C2SC(=N)Nc3c2c(C)nn3C(=O)c2ccc(Cl)cc2)cc(OC)c1OC` (stereo unspecified), the GI50 in [1], in assay [2], in assay [3], in [4], in assay [5] and in assay [7] was > 10 µM (inactive) throughout. For the same molecule, the GI50 in assay [8], in [9], in assay [10], in assay [11], in assay [12] and in assay [13] was > 10 µM (inactive) throughout. Moreover, the GI50 in [19], in [20], in assay [14], in assay [15], in assay [16] and in assay [17] was > 10 µM (inactive) in each case. In addition, in assay [18], the GI50 was > 10 µM (inactive).
`COc1cc(/C=N/NC(=O)c2c(Cl)c(Cl)c(Cl)c(Cl)c2-c2nc3cc(C(=O)c4ccccc4)ccc3[nH]2)ccc1O`: the GI50 in assay [1] is 35.4 µM (inactive); in [2] it was 11.5 µM (inactive); in [3], 34.3 µM (inactive); in assay [4] it was 15.8 µM (inactive); in assay [5] it was > 100 µM (inactive); in assay [7], 26.5 µM (inactive). For the same molecule, the GI50 in [8] is 60 µM (inactive); in [9], 34.5 µM (inactive); in [10], 36.5 µM (inactive); in assay [11], 40.1 µM (inactive); in assay [12], 22.1 µM (inactive); in assay [13], 32.7 µM (inactive). Further, the GI50 in assay [19] is 34.2 µM (inactive); in assay [20], 20.4 µM (inactive); in [14], 76.9 µM (inactive); in assay [15], 16.1 µM (inactive); in assay [16], 42.1 µM (inactive); in [17] it was 22.6 µM (inactive). Further, the GI50 in [18] was 63.8 µM (inactive).
Consider `O=C1Sc2ccccc2NC1=C(C(=O)c1ccccc1)C(=O)c1ccccc1`, for which the GI50 in [1] was 16 µM (inactive); in [3], 15.2 µM (inactive); in [4] it was 2.88 µM (inactive); in [5], 47.1 µM (inactive); in assay [6], 34.8 µM (inactive); in assay [7], 2.44 µM (inactive). Moreover, the GI50 in [8] was 62.5 µM (inactive); in assay [9], 30.2 µM (inactive); in [10], 18.2 µM (inactive); in assay [11], 22.5 µM (inactive); in assay [12], 18.4 µM (inactive); in [13], 35.9 µM (inactive). For the same molecule, the GI50 was 19.4 µM (inactive) in [19]; 16.8 µM (inactive) in [20]; 36.6 µM (inactive) in [14]; 33.7 µM (inactive) in assay [15]; 27.5 µM (inactive) in assay [16]; 26.5 µM (inactive) in assay [17]. Also, the GI50 in assay [18] was 33.1 µM (inactive).
Take `COc1ccc2c(c1OC)OCC(CN(C)C)C2=O` (stereo unspecified): the GI50 in [1] was 18.9 µM (inactive); in [2] it was 1.87 µM (inactive); in [3], 17.3 µM (inactive); in [4], 3.63 µM (inactive); in [5] it was 19.1 µM (inactive); in assay [7], 8.95 µM (inactive). Further, the GI50 in assay [8] is 39.1 µM (inactive); in assay [9], 7.45 µM (inactive); in assay [10], 18.5 µM (inactive); in assay [11], 15.4 µM (inactive); in assay [12] it was 0.187 µM (active); in [13], 19.4 µM (inactive). In addition, the GI50 in [19] was > 47.1 µM (inactive); in assay [20], 17.7 µM (inactive); in [14], 4.99 µM (inactive); in assay [15], 18.2 µM (inactive); in [16], 26.1 µM (inactive); in [17], 19.9 µM (inactive). The GI50 in assay [18] is 25.2 µM (inactive).
In the case of `C=CCOC1OC(CS(=O)(=O)O)C(OC(C)=O)C(OC(C)=O)C1OC(C)=O` (stereo unspecified), the GI50 in assay [1] is > 100 µM (inactive); in assay [2] it was > 100 µM (inactive); in assay [3] it was > 100 µM (inactive); in assay [4], 38.1 µM (inactive); in [5], > 100 µM (inactive); in assay [6] it was > 100 µM (inactive). The GI50 in [7], in [8], in assay [9], in assay [10], in [11] and in assay [13] was > 100 µM (inactive) throughout. Further, the GI50 in [19], in assay [20], in [14], in [15] and in assay [17] was > 100 µM (inactive) each time.
